# Where two headings read alike, the source gives them in different places.
# What was measured:
# [1] = test system: cotton pellet induced granuloma; assay: cotton pellet induced granuloma test; assay type: in vivo
# Excerpt: (§1) When tested on a conventional cotton pellet induced granuloma test the results shown hereafter were obtained. In these tests hydrocortisone (HC) was used as a positive control.
# [2] = overt toxic effects during testing (Demonstration 2); assay type: in vivo
# Excerpt: as §1
# [3] = test system: carrageenin induced oedema; assay: carrageenin induced oedema test for anti-inflammatory activity; assay type: in vivo; conditions: Rattus norvegicus; per oral in rats; read-out: dose at which active (anti-inflammatory)
# Protocol: c. When tested on a conventional carrageenin induced oedema test foranti-inflammatory activity, the compound of Example 1 was classed as active at 10 mg/kg per oral in rats (as compared to about 5 mg/kg for tolmetin).
# [4] = test system: rats; assay: toxicity observations during testing in rats; assay type: in vivo; conditions: up to 100 mg/kg per day for 6 days
# [5] = test system: phenylquinone induced writhing; assay: phenylquinone induced writhing test for analgesic activity; assay type: in vivo; conditions: oral, mice; for ED50: Mus musculus
# Excerpt: a. When tested on a conventional phenylquinone induced writhing test for analgesic activity, the compound of Example 1 and tolmetin produced the following ED50 values when administered orally to mice: […]
# [6] = test system: stomachs; assay: gastric erosion test after oral dosing; assay type: in vivo, rats; conditions: for No. of Animals Showing Erosions: groups of 10 rats, 4 hour contact time
# Protocol: b. Groups of 10 rats were starved overnight and then dosed orally with the test compound suspended in 0.7% methylcellulose. After a 4 hour contact time the animals were killed and the stomachs removed, inflated with 0.9% saline, cut open after 30 minutes and examined for erosions. The following results, expressed as the number of animals in each group showing damage, were obtained: […]
# [7] = J. Pharmacol. Exptl. Therap. 1973, 185, 127-138; cited from earlier work
# [8] = in vivo
smiles,measurement,setting,value
"C[C@]12CCC(=O)C=C1CC[C@@H]1[C@@H]2[C@@H](O)C[C@@]2(C)[C@H]1CC[C@]2(O)C(=O)CO [HC, hydrocortisone, reference compound]",Inhibition (cotton pellet granuloma),[1]; 10 mg/kg,43%
"CC(=O)CCc1ccc(C(=O)c2ccc(Cl)cc2)n1C [Example 3, 4-(1-Methyl-5-p-chlorobenzoyl-2-pyrryl)butan-2-one]",Inhibition (cotton pellet granuloma),[1]; 10 mg/kg,42%
same,drug-induced lethalities,[2]; during testing,no drug-induced lethalities were observed
same,overt toxic effects,[2]; during testing,not found to exhibit any overt toxic effects
same,body weight gain,[2]; in vivo,no reduction in body weight gain was observed
same,thymus weight,[2]; in vivo,no change in thymus weight was observed
"CC(=O)CCc1ccc(C(=O)c2cccs2)n1C [Example 4, 4-(1-Methyl-5-thien-2'-oyl-2-pyrryl)butan-2-one]",Inhibition (cotton pellet granuloma),[1]; 10 mg/kg,24%
same,drug-induced lethalities,[2]; during testing,no drug-induced lethalities were observed
same,body weight gain,[2]; in vivo,no reduction in body weight gain was observed
same,overt toxic effects,[2]; in vivo,not found to exhibit any overt toxic effects
same,thymus weight,[2]; in vivo,no change in thymus weight was observed
"CC(=O)CCc1ccc(C(=O)c2ccc(C)cc2)n1C [Example 1, 4-(1-Methyl-5-p-toluoyl-2-pyrryl)butan-2-one]",minimal effective dose,[3],10 mg/kg
same,drug-induced lethalities,[4],No drug-induced lethalities have been observed
same,ED50,"[5]; Test A, read-out: ED50, Test A",6.7 mg/kg
same,ED50,"[5]; Test B, read-out: ED50, Test B",5.3 mg/kg
same,analgesic potency relative to tolmetin,[5]; from ED50 values,about half as potent as tolmetin
same,No. of Animals Showing Erosions,[6]; 30 mg/kg oral,0 No. of Animals
same,No. of Animals Showing Erosions,[6]; 90 mg/kg oral,1 No. of Animals
same,No. of Animals Showing Erosions,[6]; 270 mg/kg oral,1 No. of Animals
Cc1ccc(C(=O)c2ccc(CC(=O)O)n2C)cc1 [Tolmetin],anti-inflammatory activity,[7],possess anti-inflammatory activity
same,minimal effective dose,[3],~5 mg/kg
same,ED50,"[5]; Test A, read-out: ED50, Test A",4.3 mg/kg
same,ED50,"[5]; Test B, read-out: ED50, Test B",2.3 mg/kg
same,gastric irritancy,[8],causes gastric irritancy in test animals at doses not greatly exceeding the therapeutic dose
same,No. of Animals Showing Erosions,[6]; 10 mg/kg oral,2 No. of Animals
same,No. of Animals Showing Erosions,[6]; 30 mg/kg oral,6 No. of Animals
same,No. of Animals Showing Erosions,[6]; 90 mg/kg oral,10 No. of Animals
same,gastric irritancy relative to the compound of Example 1,"[6]; oral, rats, ""probably at least""",at least 10 times
"Cc1ccc(C(=O)c2ccc(CCC3(C)OCCO3)n2C)cc1 [Example 7, 2-Methyl-2-[2-(1-methyl-5-p-toluoyl-2-pyrryl)ethyl]-1,3-dioxolane]",Inhibition (cotton pellet granuloma),[1]; 50 mg/kg,43%
same,drug-induced lethalities,[2]; during testing,no drug-induced lethalities were observed
same,overt toxic effects,[2]; during testing,not found to exhibit any overt toxic effects
same,body weight gain,[2]; in vivo,no reduction in body weight gain was observed
same,thymus weight,[2]; in vivo,no change in thymus weight was observed
"CC(=O)OC(C)CCc1ccc(C(=O)c2ccc(C)cc2)n1C (centres unmarked) [Example 6, 2-Acetoxy-4-(1-methyl-5-p-toluoyl-2-pyrryl)butane]",Inhibition (cotton pellet granuloma),[1]; 50 mg/kg,34%
same,drug-induced lethalities,[2]; during testing,no drug-induced lethalities were observed
same,overt toxic effects,[2]; during testing,not found to exhibit any overt toxic effects
same,body weight gain,[2]; in vivo,no reduction in body weight gain was observed
same,thymus weight,[2]; in vivo,no change in thymus weight was observed

# Source: patent publication US4200645A, “Pyrrole derivatives” (Beecham Group Limited, priority 1977, dated 1980)
